Experiment: Excipient compatibility study at 40° C./75% RH (HPLC Assay/Related Substances)
Type: physicochemical
Settings: for Chromatographic purity by HPLC (% area) / Total Impurities % (% adjusted area): 40° C./75% RH; for Total Impurities % (% adjusted area): excluding API impurities
Experimental: An excipient compatibility study was initiated with selected excipients ranging from oils to surfactants based on equilibrium solubility results (Table 2). […] After solutions were prepared using a hand-held homogenizer (Model IKAT10 Ultra-Turrax), each excipient sample was aliquoted in amber vials, approximately 10% water was added in each excipient aliquot, and bench scale gel stripe OET-004037 was also made and added in a separate set of aliquot samples at approximately 1:1 w/w.
All samples were stored at 40° C./75% relative humidity (RH) condition (Model: Lunaire environmental chamber) and tested by developmental reversed phase HPLC method for Assay/Related Substances at T=0, 2 weeks, and 1 month.

[1] = in Fractionated coconut oil, 10% water, T = 2 weeks
[2] = in Fractionated coconut oil, Control, T = 0
[3] = in Fractionated coconut oil, Control, T = 2 weeks
[4] = in Fractionated coconut oil, Gel Stripe (1:1 w/w), T = 2 weeks
[5] = in Labrasol ALF, 10% water, T = 1 months
[6] = in Labrasol ALF, 10% water, T = 2 weeks
[7] = in Labrasol ALF, Control, T = 0
[8] = in Labrasol ALF, Control, T = 1 months
[9] = in Labrasol ALF, Control, T = 2 weeks
[10] = in Labrasol ALF, Gel Stripe (1:1 w/w), T = 1 months
[11] = in Labrasol ALF, Gel Stripe (1:1 w/w), T = 2 weeks
[12] = in Maisine CC, 10% water, T = 1 months
[13] = in Maisine CC, 10% water, T = 2 weeks
[14] = in Maisine CC, Control, T = 1 months
[15] = in Maisine CC, Control, T = 2 weeks
[16] = in Maisine CC, Gel Stripe (1:1 w/w), T = 1 months
[17] = in Maisine CC, Gel Stripe (1:1 w/w), T = 2 weeks
[18] = in Masester E8120, 10% water, T = 1 months
[19] = in Masester E8120, 10% water, T = 2 weeks
[20] = in Masester E8120, Control, T = 0
[21] = in Masester E8120, Control, T = 1 months
[22] = in Masester E8120, Control, T = 2 weeks
[23] = in Masester E8120, Gel Stripe (1:1 w/w), T = 1 months
[24] = in Masester E8120, Gel Stripe (1:1 w/w), T = 2 weeks
[25] = in Oleic acid, 10% water, T = 2 weeks
[26] = in Oleic acid, Control, T = 2 weeks
[27] = in Oleic acid, Gel Stripe (1:1 w/w), T = 2 weeks

ivermectin
chemical compatibility with the API (PEG 400 as co-solvent): poor chemical compatibility | chemical compatibility with the API (Tween 80): less stability over time | chemical compatibility with the API (Vitamin E TPGS, compared with Tween 80 and Labrasol ALF): best chemical compatibility | Chromatographic purity by HPLC (% area) [1]: 97.83 % area | Total Impurities % (% adjusted area) [1]: <LOQ | Chromatographic purity by HPLC (% area) [2]: 95.61 % area | Total Impurities % (% adjusted area) [2]: <LOQ | Chromatographic purity by HPLC (% area) [3]: 97.94 % area | Total Impurities % (% adjusted area) [3]: <LOQ | Chromatographic purity by HPLC (% area) [4]: 94.42 % area | Total Impurities % (% adjusted area) [4]: 3.28 % adjusted area | Chromatographic purity by HPLC (% area) [5]: 89.91 % area | Total Impurities % (% adjusted area) [5]: 8.76 % adjusted area | Chromatographic purity by HPLC (% area) [6]: 93.91 % area | Total Impurities % (% adjusted area) [6]: 3.46 % adjusted area | Chromatographic purity by HPLC (% area) [7]: 97.74 % area | Total Impurities % (% adjusted area) [7]: <LOQ | Chromatographic purity by HPLC (% area) [8]: 81.35 % area | Total Impurities % (% adjusted area) [8]: 20.49 % adjusted area | Chromatographic purity by HPLC (% area) [9]: 89.16 % area | Total Impurities % (% adjusted area) [9]: 8.67 % adjusted area | Chromatographic purity by HPLC (% area) [10]: 96.49 % area | Total Impurities % (% adjusted area) [10]: 1.06 % adjusted area | Chromatographic purity by HPLC (% area) [11]: 97.11 % area | Total Impurities % (% adjusted area) [11]: 0.30 % adjusted area | Chromatographic purity by HPLC (% area) [12]: 96.83 % area | Total Impurities % (% adjusted area) [12]: 0.69 % adjusted area | Chromatographic purity by HPLC (% area) [13]: 95.90 % area | Total Impurities % (% adjusted area) [13]: 0.45 % adjusted area | Chromatographic purity by HPLC (% area) (in Maisine CC, Control, T = 0): 97.13 % area | Total Impurities % (% adjusted area) (in Maisine CC, Control, T = 0): 0.58 % adjusted area | Chromatographic purity by HPLC (% area) [14]: 96.82 % area | Total Impurities % (% adjusted area) [14]: 0.71 % adjusted area | Chromatographic purity by HPLC (% area) [15]: 96.00 % area | Total Impurities % (% adjusted area) [15]: 0.35 % adjusted area | Chromatographic purity by HPLC (% area) [16]: 96.94 % area | Total Impurities % (% adjusted area) [16]: 0.58 % adjusted area | Chromatographic purity by HPLC (% area) [17]: 96.15 % area | Total Impurities % (% adjusted area) [17]: 0.33 % adjusted area | Chromatographic purity by HPLC (% area) [18]: 91.68 % area | Total Impurities % (% adjusted area) [18]: 6.60 % adjusted area | Chromatographic purity by HPLC (% area) [19]: 95.11 % area | Total Impurities % (% adjusted area) [19]: 2.27 % adjusted area | Chromatographic purity by HPLC (% area) [20]: 97.58 % area | Total Impurities % (% adjusted area) [20]: 0.17 % adjusted area | Chromatographic purity by HPLC (% area) [21]: 97.06 % area | Total Impurities % (% adjusted area) [21]: 0.45 % adjusted area | Chromatographic purity by HPLC (% area) [22]: 96.81 % area | Total Impurities % (% adjusted area) [22]: 0.58 % adjusted area | Chromatographic purity by HPLC (% area) [23]: 97.31 % area | Total Impurities % (% adjusted area) [23]: 0.18 % adjusted area | Chromatographic purity by HPLC (% area) [24]: 97.35 % area | Total Impurities % (% adjusted area) [24]: 0.11 % adjusted area | Chromatographic purity by HPLC (% area) [25]: 86.02 % area | Total Impurities % (% adjusted area) [25]: 9.89 % adjusted area | Chromatographic purity by HPLC (% area) (in Oleic acid, Control, T = 0): 99.60 % area | Total Impurities % (% adjusted area) (in Oleic acid, Control, T = 0): <LOQ | Chromatographic purity by HPLC (% area) [26]: 83.55 % area | Total Impurities % (% adjusted area) [26]: 17.27 % adjusted area | Chromatographic purity by HPLC (% area) [27]: 83.73 % area | Total Impurities % (% adjusted area) [27]: 11.82 % adjusted area | Chromatographic purity by HPLC (% area) (in PEG 400, 10% water, T = 2 weeks): 94.35 % area
